Columns and labels:
ATF4 = test: HEK-ATF4 High Content Imaging assay (prevention of Tunicamycin induced ISR; ATF4 signal ratio between nucleus and cytoplasm); format: cell-based; conditions: Homo sapiens; Wild-type HEK293 cells, Tunicamycin induced ISR, 6 h; read-out: IIEK-ATF4 Activity
Description: HEK-ATF4 High Content Imaging Assay
Example compounds were tested in the HEK-ATF4 High Content Imaging assay to assess their pharmacological potency to prevent Tunicamycin induced ISR. Wild-type HEK293 cells were plated in 384-well imaging assay plates at a density of 12,000 cells per well in growth medium (containing DMEM/F12, 10% FBS, 2 mM L-Glutamine, 100 U/mL Penicillin-100 μg/mL Streptomycin) and incubated at 37° C., 5% CO2. 24 h later, the medium was changed to 50 μL assay medium per well (DMEM/F12, 0.3% FBS, 2 mM L-Glutamine, 100 U/mL Penicillin-100 μg/mL Streptomycin). Example compounds were serially diluted in DMSO, spotted into intermediate plates and prediluted with assay medium containing 3.3 μM Tunicamycin to give an 11-fold excess of final assay concentration. In addition to the example compound testing area, the plates also contained multiples of control wells for assay normalization purposes, wells containing Tunicamycin but no example compounds (High control), as well as wells containing neither example compound nor Tunicamycin (Low control). The assay was started by transferring 5 μL from the intermediate plate into the assay plates, followed by incubation for 6 h at 37° C., 5% CO2. Subsequently, cells were fixed (4% PFA in PBS, 20 min at r.t.) and submitted to indirect ATF4 immunofluorescence staining (primary antibody rabbit anti ATF4, clone D4B8, Cell Signaling Technologies; secondary antibody Alexa Fluor 488 goat anti-rabbit IgG (H+L), Thermofisher Scientific). Nuclei were stained using Hoechst dye (Thermofisher Scientific), and plates were imaged on an Opera Phenix High Content imaging platform equipped with 405 nm and 488 nm excitation. Finally, images were analyzed using script based algorithms. The main readout HEK-ATF4 monitored the ATF4 signal ratio between nucleus and cytoplasm. Tunicamycin induced an increase in the overall ATF4 ratio signal, which was prevented by ISR modulating example compounds. In addition, HEK-CellCount readout was derived from counting the number of stained nuclei corresponding to healthy cells. This readout served as an internal toxicity control.

[1] = molecular target: T1, human ERG potassium channel (hERG) (Homo sapiens, UniProt Q12809); test: hERG channel tail current recording using in vitro Rapid ICE (automated patch-clamp, QPatch HTX); format: cell-based; conditions: Table 26
T1 construct: expressed in transfected cells; host or cells: HEK293, stably transfected, tetracycline-inducible promoter
T1 sequence (Q12809 whole entry): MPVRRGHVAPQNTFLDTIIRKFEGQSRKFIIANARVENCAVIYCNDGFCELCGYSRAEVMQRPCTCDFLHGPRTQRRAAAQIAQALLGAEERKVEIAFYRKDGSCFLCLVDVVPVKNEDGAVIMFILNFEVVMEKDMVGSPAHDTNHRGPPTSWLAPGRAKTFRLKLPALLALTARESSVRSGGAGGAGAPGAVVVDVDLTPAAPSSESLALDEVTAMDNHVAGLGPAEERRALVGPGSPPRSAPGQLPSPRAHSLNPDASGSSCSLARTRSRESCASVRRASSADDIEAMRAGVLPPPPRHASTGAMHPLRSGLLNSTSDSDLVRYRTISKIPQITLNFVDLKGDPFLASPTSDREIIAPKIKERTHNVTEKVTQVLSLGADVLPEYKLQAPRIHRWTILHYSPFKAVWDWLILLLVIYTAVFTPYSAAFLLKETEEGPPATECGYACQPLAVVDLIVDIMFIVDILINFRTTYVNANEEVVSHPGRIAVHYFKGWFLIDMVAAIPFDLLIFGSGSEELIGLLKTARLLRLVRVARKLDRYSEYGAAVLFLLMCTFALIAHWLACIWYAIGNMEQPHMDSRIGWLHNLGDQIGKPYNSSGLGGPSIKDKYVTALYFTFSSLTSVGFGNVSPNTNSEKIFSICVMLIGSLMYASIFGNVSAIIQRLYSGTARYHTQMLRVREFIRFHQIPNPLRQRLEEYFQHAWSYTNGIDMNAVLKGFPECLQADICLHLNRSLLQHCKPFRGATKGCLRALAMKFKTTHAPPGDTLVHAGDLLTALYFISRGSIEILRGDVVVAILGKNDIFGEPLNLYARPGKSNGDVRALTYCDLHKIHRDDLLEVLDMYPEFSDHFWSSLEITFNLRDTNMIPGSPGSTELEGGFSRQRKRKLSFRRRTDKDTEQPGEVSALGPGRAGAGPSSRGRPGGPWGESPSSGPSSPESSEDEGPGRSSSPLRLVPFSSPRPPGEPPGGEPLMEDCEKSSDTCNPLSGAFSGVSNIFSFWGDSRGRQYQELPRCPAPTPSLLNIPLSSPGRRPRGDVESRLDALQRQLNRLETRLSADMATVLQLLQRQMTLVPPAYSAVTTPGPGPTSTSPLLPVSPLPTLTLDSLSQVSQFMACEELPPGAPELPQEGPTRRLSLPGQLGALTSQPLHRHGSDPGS
Description: Protocol—Measure of the Effect on hERG Channel by Tail Current Recording Using In Vitro Rapid ICE
The potency of the example compounds in inhibiting human ERG potassium channel (hERG) tail current was assessed in a recombinant HEK293 cell line stably transfected with hERG cDNA under an inducible promoter, using Rapid ICE (rapid ion channel electrophysiology) assay. Rapid ICE is an automated patch-clamp assay utilizing the QPatch HTX system (Sophion Bioscience A/S). Briefly, inducible HEK hERG cells were cultivated in minimum essential medium supplemented with 10% FBS, 1% non-essential amino acids, 1% sodium pyruvate, 2 mM 1-glutamine, 15 μg/mL blasticidin, and 100 μg/mL hygromycin. hERG channel expression induction was obtained by adding 10 μg/mL tetracycline for 24, 48, or 72 h before recordings.
On the day of the experiment, cells were detached with TrypLE and prepared to be loaded on the instrument. Cells were resuspended in 7 mL of Serum-Free Media containing 25 mM Hepes and soybean trypsin inhibitor and immediately placed in the cell storage tank of the machine. The composition of the extracellular buffer was (mM): NaCl 137, KCl 4, CaCl2 1.8, MgCl2 1.0, d-glucose 10, N-2-hydroxyethylpiperazine-N′-2-ethanesulfonic acid (HEPES) 10, pH 7.4 with 1 M NaOH. The composition of the intracellular solution was (mM): KCl 130, MgCl2 1.0, ethylene glycol-bis(β-aminoethyl ether)-N,N,N′,N′-tetraacetic acid (EGTA) 5, MgATP 5, HEPES 10, pH 7.2 with 1 M KOH. The voltage protocol included the following steps: step from −80 to −50 mV for 200 ms, +20 mV for 4.8 s, step to −50 mV for 5 s, then step to the holding potential of −80 mV. Compounds were dissolved in DMSO and diluted in extracellular buffer to achieve final test concentrations (0.3, 3, and 30 μM) in 0.3% DMSO. The voltage protocol was run and recorded continuously during the experiment. The vehicle, corresponding to 0.3% DMSO in extracellular buffer was then applied for 3 min, followed by the test substance in triplicate. The standard combined exposure time was 5 min. The average of tail current amplitude values recorded from four sequential voltage pulses was used to calculate for each cell the effect of the test substance by calculating the residual current (% control) compared with vehicle pretreatment. Data were reported as % inhibition for each concentration tested, and IC50 values were estimated using QPatch software. At least two cells were tested, and even more if results diverged.

Structure (SMILES)	IC50 (ATF4) [µM]	IC50 [1] [µM]
O=C(COc1ccc(Cl)c(F)c1)N[C@H]1CC[C@H](c2nnc(OCCOC3CC3)o2)NC1 [Example 80, 2-(4-chloro-3-fluorophenoxy)-N-[(3S,6R)-6-[5-(2-cyclopropoxythoxy)-1,3,4-oxadiazol-2-yl]piperidin-3-yl]acetamide]	0.001 to 0.5	> 5
CC(F)(F)CCOc1nnc([C@H]2CC[C@H](NC(=O)COc3ccc(Cl)c(F)c3)CN2)o1 [Example 65, 2-(4-chloro-3-fluorophenoxy)-N-[(3S,6R)-6-[5-(3,3-difluorobutoxy)-1,3,4-oxadiazol-2-yl]piperidin-3-yl]acetamide]	0.5 to 2	1 to 5
O=C(COc1ccc(Cl)c(F)c1)N[C@@H]1CC[C@H](c2nnc([C@H]3C[C@@H](OC(F)(F)F)C3)o2)NC1=O (racemic) [Example 38, rac-2-(4-chloro-3-fluorophenoxy)-N-[(3R,6R)-2-oxo-6-{5-[(1s,3s)-3-(trifluoromethoxy)cyclobutyl]-1,3,4-oxadiazol-2-yl}piperidin-3-yl]acetamide]	2 to 15	> 5
O=C(COc1ccc(Cl)c(F)c1)N[C@H]1CC[C@H](c2nnc(-c3ccc(Cl)cc3)o2)NC1 [Example 40, 2-(4-chloro-3-fluorophenoxy)-N-[(3S,6R)-6-[5-(4-chlorophenyl)-1,3,4-oxadiazol-2-yl]piperidin-3-yl]acetamide]	0.001 to 0.5	0.001 to 1
COc1cc(OCC(=O)N[C@H]2CC[C@H](c3nnc(OCCOC(F)(F)F)o3)NC2)ccc1C(F)(F)F [Example 15, 2-[3-methoxy-4-(trifluoromethyl)phenoxy]-N-[(3S,6R)-6-{5-[2-(trifluoromethoxy)ethoxy]-1,3,4-oxadiazol-2-yl}piperidin-3-yl]acetamide]	0.001 to 0.5	> 5
O=C(COc1ccc(Cl)c(F)c1)N[C@H]1CC[C@H](c2nnc(OCC3CC3C(F)(F)F)o2)NC1 (stereo partly drawn) [Example 88, 2-(4-chloro-3-fluorophenoxy)-N-[(3S,6R)-6-(5-{[2-(trifluoromethyl)cyclopropyl]methoxy}-1,3,4-oxadiazol-2-yl)piperidin-3-yl]acetamide]	0.5 to 2	1 to 5
O=C(COc1ccc(Cl)c(F)c1)N[C@H]1CC[C@H](c2nnc(OC3CC(F)(F)C3)o2)NC1 [Example 72, 2-(4-chloro-3-fluorophenoxy)-N-[(3S,6R)-6-[5-(3,3-difluorocyclobutoxy)-1,3,4-oxadiazol-2-yl]piperidin-3-yl]acetamide]	2 to 15	1 to 5
O=C(COc1cnc(Cl)c(F)c1)N[C@H]1CC[C@H](c2nnc(-c3ccc(Cl)c(Cl)c3)o2)NC1 [Example 100, 2-[(6-chloro-5-fluoropyridin-3-yl)oxy]-N-[(3S,6R)-6-[5-(3,4-dichlorophenyl)-1,3,4-oxadiazol-2-yl]piperidin-3-yl]acetamide]	0.001 to 0.5	1 to 5
O=C(COc1ccc(Cl)c(F)c1)N[C@@H]1CC[C@@H](c2nnc(OCCC(F)(F)F)o2)NC1 [Example 42, 2-(4-chloro-3-fluorophenoxy)-N-[(3R,6S)-6-[5-(3,3,3-trifluoropropoxy)-1,3,4-oxadiazol-2-yl]piperidin-3-yl]acetamide]	0.001 to 0.5	1 to 5
O=C(COc1ccc(C(F)F)c(Cl)c1)N[C@H]1CC[C@H](c2nnc(OCCOC(F)(F)F)o2)NC1 [Example 113, 2-[3-chloro-4-(difluoromethyl)phenoxy]-N-[(3S,6R)-6-{5-[2-(trifluoromethoxy)ethoxy]-1,3,4-oxadiazol-2-yl}piperidin-3-yl]acetamide]	0.001 to 0.5	1 to 5

Continued, in another order:

IC50 (ATF4) [µM]	Structure (SMILES)	IC50 [1] [µM]
2 to 15	O=C(COc1ccc(Cl)c(F)c1)N[C@@H]1CN[C@@H](c2nnc(-c3ccc(Cl)cc3)o2)C1 [Example 31, 2-(4-chloro-3-fluorophenoxy)-N-[(3S,5R)-5-[5-(4-chlorophenyl)-1,3,4-oxadiazol-2-yl]pyrrolidin-3-yl]acetamide]	0.001 to 1
0.001 to 0.5	CN1C[C@@H](NC(=O)COc2ccc(Cl)c(F)c2)CC[C@@H]1c1nnc(-c2ccc(Cl)cc2)o1 [Example 45, 2-(4-chloro-3-fluorophenoxy)-N-[(3S,6R)-6-[5-(4-chlorophenyl)-1,3,4-oxadiazol-2-yl]-1-methylpiperidin-3-yl]acetamide]	0.001 to 1
0.001 to 0.5	O=C(COc1ccc(Cl)c(F)c1)N[C@H]1CC[C@H](c2nnc(OCCOC3CC3(F)F)o2)NC1 (stereo partly drawn) [Example 87, 2-(4-chloro-3-fluorophenoxy)-N-[(3S,6R)-6-{5-[2-(2,2-difluorocyclopropoxy)ethoxy]-1,3,4-oxadiazol-2-yl}piperidin-3-yl]acetamide]	1 to 5
0.001 to 0.5	O=C(COc1ccc(Cl)c(F)c1)N[C@H]1CC[C@H](c2nnc(-c3ccc(C(F)(F)F)cc3)o2)NC1 [Example 2, 2-(4-chloro-3-fluorophenoxy)-N-[(3S,6R)-6-{5-[4-(trifluoromethyl)phenyl]-1,3,4-oxadiazol-2-yl}piperidin-3-yl]acetamide]	0.001 to 1
2 to 15	CC(CC(F)(F)F)Oc1nnc([C@H]2CC[C@H](NC(=O)COc3ccc(Cl)c(F)c3)CN2)o1 (stereo partly drawn) [Example 64, 2-(4-chloro-3-fluorophenoxy)-N-[(3S,6R)-6-{5-[(4,4,4-trifluorobutan-2-yl)oxy]-1,3,4-oxadiazol-2-yl}piperidin-3-yl]acetamide]	> 5
0.5 to 2	O=C(COc1ccc(Cl)c(F)c1)N[C@H]1CC[C@H](c2nnc(C3CC(OC4CC4)C3)o2)NC1 (stereo partly drawn) [Example 59, 2-(4-chloro-3-fluorophenoxy)-N-[(3S,6R)-6-[5-(3-cyclopropoxycyclobutyl)-1,3,4-oxadiazol-2-yl]piperidin-3-yl]acetamide]	> 5
0.001 to 0.5	O=C(COc1ccc(Cl)c(F)c1)N[C@H]1CC[C@H](c2nnc(-c3ccc(Cl)c(F)c3)o2)NC1 [Example 54, 2-(4-chloro-3-fluorophenoxy)-N-[(3S,6R)-6-[5-(4-chloro-3-fluorophenyl)-1,3,4-oxadiazol-2-yl]piperidin-3-yl]acetamide]	0.001 to 1
0.001 to 0.5	O=C(COc1cnc(Cl)c(F)c1)N[C@H]1CC[C@H](c2nnc(-c3ccc(Cl)cc3)o2)NC1 [Example 7, 2-[(6-chloro-5-fluoropyridin-3-yl)oxy]-N-[(3S,6R)-6-[5-(4-chlorophenyl)-1,3,4-oxadiazol-2-yl]piperidin-3-yl]acetamide]	0.001 to 1
0.5 to 2	O=C(COc1ccc(Cl)c(F)c1)N[C@H]1CC[C@H](c2nnc([C@H]3C[C@@H](OC4CC4)C3)o2)NC1 (single isomer, unassigned) [Example 105]	> 5
2 to 15	CN(CCOC(F)(F)F)c1nnc([C@H]2CC[C@H](NC(=O)COc3ccc(Cl)c(F)c3)CN2)o1 [Example 94, 2-(4-chloro-3-fluorophenoxy)-N-[(3S,6R)-6-(5-{methyl[2-(trifluoromethoxy)ethyl]amino}-1,3,4-oxadiazol-2-yl)piperidin-3-yl]acetamide]	> 5
